In patent US11040976B2, “Substrate selective inhibitors of insulin-degrading enzyme (IDE) and uses thereof” (President and Fellows of Harvard College, priority 2015, dated 2021):

Columns and labels:
[1] = molecular target: T1, Human N-His6-IDE42-1019 (E. coli expressed) (Homo sapiens, UniProt P14735); assay: Fluorescence anisotropy high-throughput screening assay (displacement of probe FL-6b); assay type: binding
T1 construct: Human N-His6-IDE42-1019 (E. coli expressed); made in house; host or cells: E. coli (Rosetta 2 (DE3) pLysS, plasmid pTrcHis-A)
T1 sequence (P14735 42-1019): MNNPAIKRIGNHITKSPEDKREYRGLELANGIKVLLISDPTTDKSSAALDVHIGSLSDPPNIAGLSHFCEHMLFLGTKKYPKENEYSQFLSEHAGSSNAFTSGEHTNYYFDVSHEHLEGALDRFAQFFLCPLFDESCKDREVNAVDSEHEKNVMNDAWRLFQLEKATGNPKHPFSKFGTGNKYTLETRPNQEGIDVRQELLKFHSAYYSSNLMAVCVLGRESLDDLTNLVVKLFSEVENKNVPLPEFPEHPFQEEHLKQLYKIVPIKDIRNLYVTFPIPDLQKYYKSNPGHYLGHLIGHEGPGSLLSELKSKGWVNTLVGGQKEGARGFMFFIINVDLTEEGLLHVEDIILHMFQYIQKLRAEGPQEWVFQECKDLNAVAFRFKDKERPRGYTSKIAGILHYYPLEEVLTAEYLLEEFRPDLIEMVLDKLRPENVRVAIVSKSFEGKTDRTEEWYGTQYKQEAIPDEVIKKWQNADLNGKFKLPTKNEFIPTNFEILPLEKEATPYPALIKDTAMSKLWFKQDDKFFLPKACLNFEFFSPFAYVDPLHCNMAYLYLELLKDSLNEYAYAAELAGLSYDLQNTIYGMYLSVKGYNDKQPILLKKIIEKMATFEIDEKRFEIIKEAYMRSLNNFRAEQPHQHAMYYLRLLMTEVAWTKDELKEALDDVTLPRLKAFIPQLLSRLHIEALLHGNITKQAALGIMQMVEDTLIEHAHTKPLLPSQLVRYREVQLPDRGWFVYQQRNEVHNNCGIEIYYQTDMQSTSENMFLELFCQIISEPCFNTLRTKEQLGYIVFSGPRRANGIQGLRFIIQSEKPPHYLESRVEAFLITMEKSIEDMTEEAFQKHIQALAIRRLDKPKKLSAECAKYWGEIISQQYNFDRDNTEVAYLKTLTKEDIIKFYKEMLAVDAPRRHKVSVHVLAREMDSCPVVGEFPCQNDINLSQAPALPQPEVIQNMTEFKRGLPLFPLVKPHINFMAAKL
Protocol: The fluorescence anisotropy screening method and probe FL-6b are described in PCT application PCT/US2014/064322, incorporated herein by reference.
Human N-His6-IDE42-1019 (E. coli expressed) was mixed with fluorescein-labeled macrocycle FL-6b:
[drawing 802] in 50 mM Tris buffer pH 8.0, with 1 M NaCl, at 25° C. Optimum signal was obtained using a mixture of […] probe FL-6b and 0.5 μM IDE. The “diversity-oriented (DOS) synthesis informer set” compound plates were pinned onto 384-well plates containing the enzyme-probe mixture (50 μL/well). The azetidine screen was pre-printed on 384-well plates and the enzyme-probe mixture was added (50 μL/well). The final compound concentration was 20 μM. IDE inhibitor 6bK was used as a positive control at a final concentration of 1 μM. After 30 minutes of equilibration, the increase in fluorescence anisotropy was recorded using an EnVision spectrophotometer (excitation 492 nm, emission 523 nm). The fluorescence anisotropy was independently measured twice for each screened compound. The Z-scores for each pair of measurements are plotted in FIG. 1A (DOS informer set) and FIG. 1B (azetidines), and average Z-scores are listed for exemplary compounds in Table E1.
Z-scores were calculated based on the raw anisotropy measured for each well according to Eq. 1, wherein x is the raw anisotropy value of the well, μ is the mean of the anisotropy of the negative control wells (DMSO) for the plate, and σ is the standard deviation in anisotropy of the negative control wells (DMSO) for the plate.

[2] = molecular target: T2, recombinant human IDE42-1019 (Homo sapiens, UniProt P14735); assay: Protease assay with fluorogenic peptide substrate Mca-[…](Dnp)-OH; assay type: biochemical; conditions: fluorogenic peptide Mca-RPPGFSAFK(Dnp)-OH; for IC50: apparent IC50 for compounds with submaximal inhibition, read-out: IC50 (μM) Proteolysis; for Emax: plateau at high inhibitor concentration, read-out: Imax (%) Proteolysis (inhibition maximum)
T2 construct: recombinant human IDE42-1019 (R&D Systems); purchased R&D Systems
T2 sequence (P14735 42-1019): T1 sequence (P14735 42-1019)

[3] = final compound concentration 20 μM (6bK control 1 μM), values without asterisk
[4] = values marked *: from the screen using the diversity-oriented synthesis (DOS) informer set of plates, 20 μM

| Average Z-score (Fluorescence anisotropy) [1, 3] | IC50 [2] | Emax [2] | Average Z-score (Fluorescence anisotropy) [1, 4] | Compound |
| --- | --- | --- | --- | --- |
| −6.79 | > 60 µM |  |  | Cc1cccc(-c2ccc([C@H]3[C@@H](CO)N4CCCCN(Cc5cccnc5)C[C@H]34)cc2)c1 [compound 959] |
| −12.03 | 7.5 µM | 60% |  | COc1ccccc1-c1ccc([C@@H]2[C@@H](C#N)N(C(=O)c3cccnc3)[C@@H]2CO)cc1 [D9] |
| −16.59 | > 5 µM |  |  | Cc1cccc(-c2ccc([C@@H]3[C@@H](CO)N4C(=O)CN(C(=O)NC5CCCCC5)C[C@@H]34)cc2)c1 [compound 904] |
| −16.96 | > 10 µM |  |  | Cc1cccc(-c2ccc([C@@H]3[C@H]4CN(C(=O)c5ccncc5)CCCCN4[C@H]3CO)cc2)c1 [compound 316] |
| −16.6 | 2.5 µM | 35% |  | Cc1ccccc1-c1ccc([C@H]2[C@@H](CO)N3CCCCN(S(=O)(=O)c4cn(C)cn4)C[C@H]23)cc1 [compound 736] |
| −17.72 |  | 50% |  | Cc1ccccc1-c1ccc([C@H]2[C@H](CO)N3C(=O)CN(C(=O)Cc4ccccn4)C[C@@H]23)cc1 [compound 321] |
| −3.13 | > 100 µM |  |  | Cc1cccc(-c2ccc([C@@H]3[C@@H](CO)N4CCCCN(C(=O)c5cccnc5)C[C@@H]34)cc2)c1 [compound 443] |
| −3.03 | 7 µM | 70% |  | Cc1ccccc1-c1ccc([C@H]2[C@H](CO)N3C(=O)CN(C(=O)Nc4cccc(F)c4)C[C@@H]23)cc1 [compound 534] |
|  |  | 80% | −13.56* | Cc1ccccc1-c1ccc([C@@H]2[C@H]3CN(C(=O)c4ccncc4)CC(=O)N3[C@H]2CO)cc1 [compound 102] |
| −16.96 | 7 µM | 70% |  | Cc1cccc(-c2ccc([C@H]3[C@@H](CO)N4CCCCN(C(=O)c5cccnc5)C[C@H]34)cc2)c1 [compound 091] |
| −1.36 | > 100 µM |  |  | Cc1ccccc1-c1ccc([C@H]2[C@H](CO)N3C(=O)CN(S(C)(=O)=O)C[C@@H]23)cc1 [compound 061] |
| −16.2 | < 10 µM | ~100% |  | OC[C@H]1[C@@H](c2ccc(C#Cc3ccccc3)cc2)[C@@H]2CN(Cc3cncnc3)CCCCN12 [compound 525] |
| −16.48 |  | 80% |  | Cc1ccccc1-c1ccc([C@H]2[C@@H](CO)N3CCCCN(C(=O)c4cccnc4)C[C@H]23)cc1 [compound 106] |
| −4.78 | > 100 µM |  |  | Cc1ccccc1-c1ccc([C@H]2[C@@H](CO)N3CCCCN(C(=O)c4cccnc4)C[C@@H]23)cc1 [compound 712] |
| −0.82 |  | 30% |  | COc1ccc(NC(=O)N2CCCCN3[C@H](CO)[C@H](c4ccc(-c5ccccc5C)cc4)[C@@H]3C2)cc1 [compound 529] |
| −18.28 |  | 60% |  | Cc1cccc(-c2ccc([C@H]3[C@@H](CO)N4CCCCN(C(=O)c5ccncc5)C[C@H]34)cc2)c1 [compound 836] |
| −1.33 | > 100 µM |  |  | CCCCC(=O)N1CC(=O)N2[C@@H](CO)[C@@H](c3ccc(C#Cc4cccc(OC)c4)cc3)[C@@H]2C1 [compound 564] |
|  |  | 80% | −12.26* | COc1ccccc1C#Cc1ccc([C@H]2[C@H](CO)N3CCCCN(C(=O)C4CCC4)C[C@@H]23)cc1 [compound 180] |
| −19.69 | 2.5 µM | 90% |  | CCS(=O)(=O)N1CCCCN2[C@@H](CO)[C@@H](c3ccc(C#Cc4ccccc4OC)cc3)[C@@H]2C1 [compound 964] |
| −3.48 | > 100 µM |  |  | Cc1ccccc1-c1ccc([C@H]2[C@@H](CO)N3CCCCN(CC4CC4)C[C@@H]23)cc1 [compound 768] |
| −2.37 | > 100 µM |  |  | COc1cccc(-c2ccc([C@@H]3[C@@H](CO)N4CCCCN(C(=O)Nc5ccncc5)C[C@@H]34)cc2)c1 [compound 433] |
| −16.49 |  | 70% |  | Cc1ccccc1-c1ccc([C@H]2[C@H](CO)N3C(=O)CN(C(=O)c4ccc(F)cc4)C[C@@H]23)cc1 [compound 124] |
| −16.33 |  | 100% |  | COc1ccccc1-c1ccc([C@H]2[C@@H](CO)N(C(=O)NC(C)C)[C@H]2C#N)cc1 [D2] |
| −1.67 |  | 30% |  | Cc1ccccc1-c1ccc([C@H]2[C@@H](CO)N3CCCCN(C(=O)Nc4ccc(F)cc4)C[C@@H]23)cc1 [compound 226] |
| −6.65 | > 100 µM |  |  | Cc1cccc(-c2ccc([C@@H]3[C@@H](CO)N4CCCCN(Cc5cncnc5)C[C@@H]34)cc2)c1 [compound 654] |
| −7.98 |  | 50% |  | Cc1ccccc1-c1ccc([C@@H]2[C@@H](CO)N3CCCCN(C(=O)c4cccnc4)C[C@@H]23)cc1 [compound 353] |
| −1.64 | > 200 µM |  |  | Cc1ccccc1-c1ccc([C@H]2[C@@H](CO)N3CCCCN(S(=O)(=O)Cc4ccccc4)C[C@@H]23)cc1 [compound 236] |
| −19.91 | < 10 µM | ~100% |  | O=C(c1ccccn1)N1CC(=O)N2[C@@H](CO)[C@@H](c3ccc(C#Cc4ccccc4)cc3)[C@@H]2C1 [compound 479] |
| −18.53 | 2.5 µM | 40% |  | Cc1ccccc1-c1ccc([C@@H]2[C@H]3CN(S(=O)(=O)c4cn(C)cn4)CCCCN3[C@H]2CO)cc1 [compound 868] |
| −1.37 | 7 µM | 40% |  | Cc1ccccc1-c1ccc([C@H]2[C@@H](CO)N3CCCCN(C(=O)Nc4ccccc4)C[C@@H]23)cc1 [compound 1570] |

| Compound | Average Z-score (Fluorescence anisotropy) [1, 3] | IC50 [2] | Emax [2] | Average Z-score (Fluorescence anisotropy) [1, 4] |
| --- | --- | --- | --- | --- |
| Cc1ccccc1-c1ccc(C2C3CN(Cc4cncnc4)CC2N3)cc1 (centres unmarked) [C8] | −2.58 | 7.5 µM | 70% |  |
| Cc1ccccc1-c1ccc(C2C3CN(C(=O)C4CCCCC4)CC2N3)cc1 (centres unmarked) [C6] | −13.8 | 2 µM | 60% |  |
| Cc1ccccc1-c1ccc(C2C3CN(S(=O)(=O)c4cn(C)cn4)CC2N3)cc1 (centres unmarked) [C2] | −16.62 | 7 µM | 50% |  |
| COc1ccccc1-c1ccc(C2C3CN(C(=O)c4cccnc4)CC2N3)cc1 (centres unmarked) [C4] | −13.76 | 7.5 µM | 70% |  |
| Cc1ccccc1-c1ccc(C2C3CN(Cc4ccncc4)CC2N3)cc1 (centres unmarked) [C3] | −9.02 | 5 µM | 70% |  |
| Cc1ccccc1-c1ccc([C@H]2[C@@H](CO)N3CCCCN(C(=O)Cc4ccccn4)C[C@@H]23)cc1 [compound 890] | −5.69 | > 100 µM |  |  |
| Cc1ccccc1-c1ccc(C2C3CN(C(=O)C4CCOCC4)CC2N3)cc1 (centres unmarked) [C7] | −7.7 | 2.5 µM | 80% |  |
